Earlier results as cited in patent US6413988B1, “Prucalopride oral solution” (Janssen Pharmaceutica N.V., priority 1999, dated 2002).

What was measured:
5-HT2A receptors = 5-HT2A receptors (Homo sapiens, UniProt P28223)
5-HT4 receptors = 5-HT4 receptors (Homo sapiens, UniProt Q13639)
Chain of 5-HT4 receptors (Q13639 whole entry): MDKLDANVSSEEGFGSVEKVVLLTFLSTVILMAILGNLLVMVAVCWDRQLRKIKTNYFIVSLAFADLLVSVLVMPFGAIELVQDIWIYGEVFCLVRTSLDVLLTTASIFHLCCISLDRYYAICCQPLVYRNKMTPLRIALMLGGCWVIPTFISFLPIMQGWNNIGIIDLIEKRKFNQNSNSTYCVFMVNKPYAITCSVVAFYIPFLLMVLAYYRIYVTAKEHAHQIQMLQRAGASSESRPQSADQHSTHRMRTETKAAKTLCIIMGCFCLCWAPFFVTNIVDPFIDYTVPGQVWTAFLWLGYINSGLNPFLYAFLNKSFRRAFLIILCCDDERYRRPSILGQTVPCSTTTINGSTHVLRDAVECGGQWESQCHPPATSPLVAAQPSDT

Chain of 5-HT2A receptors (P28223 whole entry): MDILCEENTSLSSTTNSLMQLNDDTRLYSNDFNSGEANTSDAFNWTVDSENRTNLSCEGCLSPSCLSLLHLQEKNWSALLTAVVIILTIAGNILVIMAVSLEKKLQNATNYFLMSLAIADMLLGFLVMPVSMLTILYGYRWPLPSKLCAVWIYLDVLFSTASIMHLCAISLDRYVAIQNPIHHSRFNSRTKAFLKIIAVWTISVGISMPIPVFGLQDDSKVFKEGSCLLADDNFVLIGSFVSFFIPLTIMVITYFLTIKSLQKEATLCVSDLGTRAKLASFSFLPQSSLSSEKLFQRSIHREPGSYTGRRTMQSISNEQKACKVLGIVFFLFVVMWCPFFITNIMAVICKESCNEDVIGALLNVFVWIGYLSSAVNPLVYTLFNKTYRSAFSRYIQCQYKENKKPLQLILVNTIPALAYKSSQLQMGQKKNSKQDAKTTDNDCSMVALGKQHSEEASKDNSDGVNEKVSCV

- affinity for 5-HT2A receptors (5-HT2A receptors): no affinity
- affinity for 5-HT3 receptors (5-HT3 receptors): no affinity
- agonist of 5-HT4 receptors (5-HT4 receptors): potent and selective agonist
SMILES: COCCCN1CCC(NC(=O)c2cc(Cl)c(N)c3c2OCC3)CC1 [Prucalopride, 4-amino-5-chloro-2,3-dihydro-N-[1-(3-methoxypropyl)-4-piperidinyl]-7-benzofuran-carboxamide]
- colonic motility and defecation (colon; in animals): stimulates colonic motility and defecation
- giant contractions in the colon (colon; propagated over the length of the colon as a peristaltic wave): induces giant contractions in the colon
